According to patent US7695731B2 (Cordis Corporation, priority 2004, dated 2010):

Experiments:
[1] = tested on: human coronary artery smooth muscle cells; assay: Anti-proliferative activity in non-synchronized cultured cells stimulated with two percent fetal bovine serum; assay type: cell-based; settings: for effect of addition on the anti-proliferative rapamycin dose response curve: non-synchronized cells treated with rapamycin, two percent fetal bovine serum
Excerpt: The multiple curves represent various concentrations of mycophenolic acid ranging from zero to one thousand nanomolar concentrations.
The multiple curves represent various concentrations of cladribine ranging from zero to nine hundred nanomolar concentrations.

[2] = In vivo release kinetics from rapamycin/mycophenolic acid EVA/BMA basecoat, porcine pharmacokinetics studies (FIG. 53, 54); settings: EVA/BMA basecoat 600 μg with 180 μg each drug, no or 100/200 μg BMA topcoat
cell viability = assay: Cell viability assay; assay type: cell-based
[3] = tested on: human coronary artery smooth muscle cells; assay: Anti-proliferative activity in synchronized cultured cells stimulated with two percent fetal bovine serum; settings: synchronized cells treated with rapamycin
[4] = tested on: human coronary artery smooth muscle cell proliferation; assay: In vitro cell culture study, coronary artery smooth muscle cell proliferation (FIG. 51); assay type: cell-based
Excerpt: FIG. 51 is a graph of the inhibition of coronary artery smooth muscle cells by trichostatin A in a cell culture study.

[5] = tested on: human smooth muscle cells; assay: Cladribine Example, PDGF-stimulated proliferation of smooth muscle cells; assay type: cell-based
Description: (§1) To assess the ability of cladribine to prevent cell proliferation, human smooth muscle or endothelial cells (Clonetics, Walkersville, Md.) were seeded at a density of 2000 cells/cm^2 (approximately 3600 cells/well) into each well of 12-well plates and cultured with 1.5 ml of growth medium containing five percent fetal calf serum (FCS). After twenty-four hours, the growth medium was changed and fresh medium containing 10 ng/ml platelet-derived growth factor AB (PDGF AB; LIFE Technologies), as well as various concentrations of cladribine (0.001-10,000 nM) were added with triplicate wells. Medium was replaced with fresh cladribine-containing medium after three days. On day six, cells were detached by trypsinization to yield a cell suspension, lightly centrifuged to pellet and then counted manually using a Neubauer hemocytometer system. Cell viability was assessed by trypan blue exclusion.

human endothelial cells = assay: Cladribine Example, PDGF-stimulated proliferation of endothelial cells; assay type: cell-based; settings: EC, Cladribine 10.000 nM
Description: as §1

[6] = In vivo release kinetics of cladribine from PVDF/HFP coating on Bx Velocity stents (FIG. 61); settings: PVDF/HFP 85/15 basecoat 1800 μg (30 % cladribine), 300 μg topcoat, Yorkshire pig
Excerpt: FIG. 61 is a graphical representation of the in vivo release kinetics of cladribine from a polymeric coating on Bx Velocity® stents, available from Cordis Corporation, implanted in a Yorkshire pig. The basecoat comprises an 85/15 ratio of PVDF and HFP and cladribine for a total combined weight of one thousand eight hundred micrograms (cladribine comprising thirty percent of the total weight). The topcoat comprises an 85/15 ratio of PVDF/HFP and no cladribine. The total weight of the topcoat is three hundred micrograms.

[7] = In vivo release kinetics from rapamycin/cladribine EVA/BMA basecoat, porcine pharmacokinetics studies (FIG. 62, 63); settings: EVA/BMA basecoat with 200 μg BMA topcoat, Yorkshire pigs
Excerpt: (§2) The basecoat is applied to Bx Velocity® stents and implanted into Yorkshire pigs.
as §2

COc1c(C)c2c(c(O)c1C/C=C(\C)CCC(=O)O)C(=O)OC2 [mycophenolic acid]
effect of addition on the anti-proliferative rapamycin dose response curve [1]: potentiates the anti-proliferative activity of rapamycin
in vivo release from stent coating compared with rapamycin [2]: elutes more completely over a shorter duration than the rapamycin

CC[C@@]1(O)C(=O)OCc2c1cc1n(c2=O)Cc2cc3c(CN(C)C)c(O)ccc3nc2-1 [topotecan]
cytotoxicity in cell viability assay (cell viability; concentrations up to one micromolar): non-cytotoxic
effect of addition on the anti-proliferative rapamycin dose response curve [3]: potentiate the anti-proliferative activity of rapamycin

CC(/C=C/C(=O)NO)=C\[C@@H](C)C(=O)c1ccc(N(C)C)cc1 [trichostatin A]
inhibition of human coronary artery smooth muscle cell proliferation [4]: completely inhibit
IC50 ([4]; read-out: anti-proliferative IC50): ~6 nM

COc1cc([C@@H]2c3cc4c(cc3[C@@H](O[C@@H]3O[C@@H]5CO[C@@H](C)O[C@H]5[C@H](O)[C@H]3O)[C@H]3COC(=O)[C@H]23)OCO4)cc(OC)c1O [etoposide]
effect of addition on the anti-proliferative rapamycin dose response curve [1]: potentiate the anti-proliferative activity of rapamycin
cytotoxicity in cell viability assay (cell viability; concentrations up to ten micromolar): non-cytotoxic
effect of addition on the anti-proliferative rapamycin dose response curve [3]: increases the percent inhibition of rapamycin alone

Nc1nc(Cl)nc2c1ncn2[C@H]1C[C@H](O)[C@@H](CO)O1 [Cladribine, 2-chlorodeoxyadenosine]
% of PDGF-stimulated increase in cell count ([5]; SMC, Cladribine 10.000 nM): −4%
potency on smooth muscle cells relative to endothelial cells ([5]; from IC50 values 23 and 40 nanomolar): approximately twice as potent
% of PDGF-stimulated increase in cell count (human endothelial cells): 10%
effect of addition on the anti-proliferative rapamycin dose response curve [1]: potentiate the anti-proliferative activity of rapamycin
inhibition of human coronary artery smooth muscle cell proliferation ([1]; non-synchronized cells, two percent fetal bovine serum (FIG. 58)): completely inhibits
in vivo elution from stent coating over time [6]: after the first day, the elution of cladribine levels off significantly
in vivo elution from stent coating compared with rapamycin [7]: elutes more rapidly than rapamycin
